Columns and labels:
c-Abl kinase domain [1] = molecular target: T1, c-Abl kinase domain (Mus musculus, UniProt P00520); test: ADP-Quest continuous fluorimetric kinase assay (Michaelis-Menten parameters and initial rates); type: biochemical; conditions: peptide 100 μM, kinase 10–50 nM; Figure 2C
T1 sequence (P00520 242-493 limits assumed): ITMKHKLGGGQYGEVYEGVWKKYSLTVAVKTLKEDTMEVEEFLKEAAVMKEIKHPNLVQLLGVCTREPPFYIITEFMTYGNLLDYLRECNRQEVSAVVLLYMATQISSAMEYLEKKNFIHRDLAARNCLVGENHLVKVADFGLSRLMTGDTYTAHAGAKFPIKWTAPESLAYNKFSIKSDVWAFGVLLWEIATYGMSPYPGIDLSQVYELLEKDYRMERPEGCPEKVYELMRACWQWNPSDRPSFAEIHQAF
Text: (§1) A fluorescence-based assay from Eurofins (ADP Quest) was used to measure the Michaelis-Menten kinetic parameters for phosphorylation of the consensus peptides by purified tyrosine kinase domains. In this assay, ADP production as a result of kinase activity is coupled to the production of resorufin, a fluorophore that emits signal at 590 nm. For all experiments, the assay reactions were set up as described in the provided assay kit protocol, in a 384 well plate format. The peptide solutions were serially diluted in 100 mM Tris, pH 8.0, and the kinases were diluted to 50 nM in buffer (10 mM HEPES, 100 mM NaCl, 1 mM TCEP, 5 mM MgCl2, 10% (v/v) glycerol). The final reaction mixtures contained 10 nM of kinase with 100 μM of ATP. […] Phosphorylation reaction progress was monitored by measuring fluorescence at excitation 530 nm and emission 590 nm every 2 min at 37 °C on a plate reader (BioTek Synergy Neo 2). The fluorescence units (RFU) were converted to μM ADP by comparison to a standard curve, and the initial rates were extracted from the linear regime of the reaction progress curves. Initial rates were also measured for samples containing each kinase but lacking a peptide substrate, to account for background ATP hydrolysis. This background rate was subtracted from the rates measured in the presence of peptide. […]

EPHB2 kinase domain [2] = test: ADP-Quest continuous fluorimetric kinase assay (initial rates of consensus peptides); type: biochemical, human; conditions: peptide 100 μM, kinase 10–50 nM; Figure 2C
Text: as §1

EPHB1 kinase domain = test: pTyr-Var library bacterial peptide display kinase screen (enrichment scores); type: biochemical, human; conditions: for Screen (variant relative to reference peptide, measured in the pTyr-Var library screen): sheet "EPHB1", variant seq vs reference seq, bacterial peptide display enrichment; for Screen: sheet EPHB1, effect of the variant peptide relative to its reference peptide in the pTyr-Var library screen (enrichment scores)
EPHB2 kinase domain [3] = test: as above; type: biochemical, human; conditions: sheet EPHB2
Fer kinase domain = test: as above; type: biochemical, mouse; conditions: sheet "Fer"
c-Abl kinase domain [4] = molecular target: T1, c-Abl kinase domain; test: as above; type: biochemical
c-Src kinase domain = c-Src kinase domain (Homo sapiens, UniProt P12931); test: as above; type: biochemical; conditions: sheet "Src";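 note: log2 fold change in enrichment of variant over reference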
[5] = effect of the variant relative to its reference peptide in the pTyr-Var library screen
[6] = variant peptide relative to its reference peptide, pTyr-Var library screen enrichment
[7] = sheet "Abl", effect of variant peptide relative to its reference peptide in pTyr-Var library screen (enrichment)
[8] = variant peptide versus its reference peptide in the pTyr-Var library screen
[9] = value of the variant peptide against its reference peptide in the pTyr-Var library screen with Fer
[10] = effect of the variant peptide relative to its reference peptide in the pTyr-Var library screen
[11] = effect of variant peptide relative to its reference peptide in the pTyr-Var library screen (enrichment scores)
[12] = fig5-data2, sheet "Abl", Screen for the variant/reference peptide pair, pTyr-Var library

Substance | Screen (EPHB1 kinase domain) | Screen (Fer kinase domain; [9]) | Screen (c-Src kinase domain; [10]) | Screen (EPHB2 kinase domain [3]; [11]) | also measured
Ac-GPPEPIYEVPPPKKKG-NH2 [EPHB2 Consensus, EPHB2 consensus substrate peptide from X5-Y-X5 screen] | – | – | – | – | phosphorylation of consensus peptide by c-Abl (initial rate relative to cognate consensus) (c-Abl kinase domain [1]): efficiently phosphorylated; phosphorylation of consensus peptide by EPHB2 (initial rate relative to cognate consensus) (EPHB2 kinase domain [2]): efficiently phosphorylated
DASENYFVMDS [TMEM240_Y77_T80M] | – | – | – | – | Screen (variant relative to reference peptide, measured in the pTyr-Var library screen) (EPHB1 kinase domain): 2.244; Screen (EPHB2 kinase domain [3]; [5]): 2.274
DNEAIYDICRC [TUBA4A_Y210_R215C] | – | – | – | – | Screen (variant relative to reference peptide, measured in the pTyr-Var library screen) (EPHB1 kinase domain): -1.159; Screen (Fer kinase domain; [6]): -0.3932; Screen (EPHB2 kinase domain [3]; [5]): -0.1529; Screen (c-Abl kinase domain [4]; [7]): -0.2438; Screen (c-Src kinase domain; [8]): 0.192
DSFATYFRWVL [H2BW1_Y84_R87W] | 1.664 | 2.515 | 2.683 | – | –
DSNLIYSQIWS [FCRL3_Y662_P660L] | -0.4048 | -0.3219 | -0.2629 | -0.3687 | –
EAVSIYQFFGQ [CBLC_Y402_H405Y_YF] | 2.283 | -0.2521 | -0.1267 | 1.796 | –
FADGVYLALEE [DUOX2_Y70_Q71L_YF] | -0.7119 | – | -0.6157 | -0.6876 | –
FAELMYTGFWH [ASS1_Y322_V321M] | 0.6121 | -0.4066 | -0.1313 | 0.8429 | –
FFPANYVAPMT [GRAP2_Y324_L319F] | 0.4698 | – | – | 0.7095 | –
FVFSFYHAFSG [ACTN4_Y265_S262F_YF] | -0.8684 | – | -2.513 | – | –
GNLLIYTDFGK [HGD_Y166_E168D] | 0.7596 | – | -0.3604 | – | –
HGEAFYSEVKA [PAK5_Y182_P187A_YF] | -0.6457 | -0.1663 | – | – | Screen (c-Src kinase domain; [8]): 0.7945
HRGHLYLAIEF [TEK_Y899_Y897H_YF] | – | – | – | – | Screen (variant relative to reference peptide, measured in the pTyr-Var library screen) (EPHB1 kinase domain): 0.9917; Screen (c-Src kinase domain; [8]): 2.155
ITNLLYHVVSW [GBA_Y412_G416S] | 0.5526 | – | -0.28 | 0.7379 | –
LASLIYNFILF [AQP6_Y231_V234I] | 0.3462 | 0.3008 | 0.7887 | -1.512 | –
LENSTYQFICV [CRB1_Y760_R764C_YF] | -0.5365 | -1.109 | -1.066 | 0.2665 | Screen (c-Abl kinase domain [4]; [12]): 0.05369
LGQRIYQFIRS [DYRK1B_Y271_Q275R_YF] | -0.4041 | -0.8955 | -0.5682 | -1.048 | –
LIFVSYDDWDF [GRIN2A_Y281_S278F_YF] | 0.6915 | -0.259 | 0.7047 | 1.496 | –

Substance | Screen (EPHB1 kinase domain) | Screen (Fer kinase domain; [9]) | Screen (c-Src kinase domain; [10]) | Screen (EPHB2 kinase domain [3]; [11]) | also measured
LLDGEYFTLQI [TP53_Y327_P322L] | – | – | – | – | Screen (variant relative to reference peptide, measured in the pTyr-Var library screen) (EPHB1 kinase domain): 0.245; Screen (Fer kinase domain; [6]): 0.2479; Screen (c-Src kinase domain; [8]): 0.8932
LPEENYQVLCF [ARHGAP1_Y365_R369C] | 1.32 | 1.701 | 2.107 | 1.989 | –
LRWREYQRQDF [PRKRIP1_Y90_R87W_YF] | 1.398 | 1.318 | – | 1.877 | Screen (c-Src kinase domain; [8]): 1.62
LTERDYSFVTT [ACTG2_Y199_G198D] | 1.497 | 1.738 | – | 1.327 | –
MSRNLYSGDCF [DDR2_Y736_Y740C_YF] | -1.85 | -0.7796 | -1.107 | -2.168 | –
NIEPIYLNMLL [ATR_Y317_V316I] | 0.9992 | 0.3194 | 0.03812 | 1.556 | –
NPIGLYSAEIL [LDB3_Y202_T206I] | 0.7886 | 1.652 | – | 0.5797 | –
NREGVYRVFAP [TGFBI_Y537_T538R] | – | – | – | – | Screen (variant relative to reference peptide, measured in the pTyr-Var library screen) (EPHB1 kinase domain): -2.691; Screen (Fer kinase domain; [6]): -4.485; Screen (EPHB2 kinase domain [3]; [5]): -2.433; Screen (c-Src kinase domain; [8]): -0.9266
NTILLYHIMAW [GPR143_Y157_S152N] | 0.2317 | – | – | 0.3631 | Screen (c-Abl kinase domain [4]; [12]): 0.6057
PIFLFYLMDLS [ITGB2_Y131_D128Y_YF] | 1.841 | – | -0.3916 | – | –
PTKNDYWAMPA [WWOX_Y287_L291P] | – | – | – | – | Screen (variant relative to reference peptide, measured in the pTyr-Var library screen) (EPHB1 kinase domain): 3.488; Screen (EPHB2 kinase domain [3]; [5]): 3.139; Screen (c-Abl kinase domain [4]; [7]): -1.562
QNTGDYCDLFG [PTPN11_Y62_Y63C_YF] | -1.22 | – | – | -1.274 | Screen (c-Src kinase domain; [8]): -0.9656
RAILLYEFVGK [NATD1_Y45_V42I_YF] | 1.082 | 1.125 | – | 1.274 | Screen (c-Src kinase domain; [8]): 1.103
RGDCMYASLLG [AR_Y269_P271S] | -1.7 | -2.075 | 0.07196 | -2.657 | –
RKVLVYDKLNV [ROR2_Y624_N620K] | -0.6022 | – | – | -1.435 | Screen (Fer kinase domain; [6]): -1.726; Screen (c-Src kinase domain; [8]): -1.144
RRIFSYRGHLW [VHL_Y112_H110Y_YF] | – | – | – | – | Screen (variant relative to reference peptide, measured in the pTyr-Var library screen) (EPHB1 kinase domain): -1.652; Screen (c-Abl kinase domain [4]; [7]): -4.34; Screen (c-Src kinase domain; [8]): -2.013
SCPANYFAFKI [FAM3D_Y65_P60S] | -0.6297 | – | -0.7557 | -0.7683 | –
SPPILYSFFLN [FCRL6_Y239_D244N_YF] | 0.08597 | 1.473 | 0.0865 | 0.2765 | –
